Read-outs that look alike come from different tables or passages of the source.
Columns and labels:
[1] = test system: central amphetamine-induced hypothermia; experiment: antagonism to central amphetamine-induced hypothermia; settings: Mus musculus, po, read-out: Amphetamine antagonism (ED50)
[2] = orientative acute toxicity (7 days observation, Irwin's observational assessment of mouse behavior); settings: mouse, in vivo, po
[3] = test system: reserpine-induced blepharospasm; experiment: antagonism to reserpine-induced blepharospasm; format: in vivo, male mice; settings: Mus musculus, po, 3 h, read-out: Reserpine antagonism, Blepharospasm (ED50)
Description: (§1) The tests were performed in an air-conditioned room at the constant temperature of 19°±1° C. Randomized groups of male mice were respectively treated by gavage with appropriate screening doses (from a maximum of 25 mg/kg below) of the test compounds, suspended in the vehicle (Methocel 0.5%; 1 ml/100 g b.w.), or with the vehicle alone.
(§2) One hour later the animals received an i.p. injection of reserpine (1.5 mg/kg; 1 ml/100 g b.w.), and one of the control groups the same volume of the vehicle alone (blank controls). Three hours after pretreatments, i.e. two hours after reserpine or vehicle treatments, blepharospasm was evaluated in scores as proposed by RUBIN et al. (J. Pharmacol., 120:125, 1957).

[4] = test system: reserpine-induced hypothermia; experiment: antagonism to reserpine-induced hypothermia; format: in vivo; settings: Mus musculus, po; gavage 1 h before reserpine 1.5 mg/kg i.p.; rectal temperature 2 h after blepharospasm evaluation; male mice
Description: as §1, §2
Two hours after the above-mentioned evaluation the rectal temperature of the animals was recorded by an appropriate probe connected to a digital thermometer (ELLAB DU-3).

mouse = experiment: orientative acute toxicity (7 days observation, Irwin's observational assessment of mouse behavior); settings: in mice; imipramine compared with title compounds

SMILES | ED50 [1] [mg/kg] | LD50 at 168 h [2] [mg/kg] | ED50 [3] [mg/kg] | ED50 [4] [mg/kg] | ED50 ([3]; gavage 1 h before reserpine 1.5 mg/kg i.p., scored 2 h after reserpine, male mice) [mg/kg] | orientative acute toxicity (in words) (mouse)
CC(=O)C=C(C)OC[C@@H]1C[C@@H]2c3cccc4[nH]cc(c34)C[C@H]2N(C)C1 [355/1171, 6-Methyl-3-[(3-buten-2-one-4-methyl)-4-oxymethyl]-ergoline] | 0.023 | > 800 | – | – | – | –
CN1C[C@H](CNC2=CC(=O)CC2)C[C@@H]2c3cccc4[nH]cc(c34)C[C@H]21 [355/1206, 6-Methyl-8-[(2-cyclopentenon)-3-aminomethyl]-ergoline] | – | > 800 | 3.1 | 7.7 | – | –
CN1C[C@H](COC2=CC(=O)CC2)C[C@@H]2c3cccc4[nH]cc(c34)C[C@H]21 [355/1228, 6-Methyl-8-[(2-cyclopentenon)-3-oxymethyl]-ergoline] | – | > 600 | 0.14 | 0.39 | – | –
CO[C@]12C[C@@H](COC3=CC(=O)CC3)CN(C)[C@@H]1Cc1cn(C)c3cccc2c13 [355/1240, 1,6-Dimethyl-8-[(2-cyclopentenon)-3-oxymethyl]-10-methoxyergoline] | 1.8 | 200 | – | – | – | –
CN1C[C@H](CNC2=CC(=O)CC2)C[C@@H]2c3cccc4c3c(cn4C)C[C@H]21 [355/1295, 1,6-Dimethyl-8-[(2-cyclopentenon)-3-aminomethyl]-ergoline] | 1.8 | > 400 | – | – | – | –
Cc1[nH]c2cccc3c2c1C[C@@H]1[C@@H]3C[C@@H](COC2=CC(=O)CC2)CN1C [355/1301, 2,6-Dimethyl-8-[(2-cyclopentenon)-3-oxymethyl]-ergoline] | – | 300 | 0.46 | 0.57 | – | –
CC(=CC#N)OC[C@@H]1C[C@@H]2c3cccc4[nH]cc(c34)C[C@H]2N(C)C1 [355/1311, 6-Methyl-8-[(3-methylacrylic nitrile)-3-oxymethyl]-ergoline] | – | 300 | 1.5 | 3.4 | – | –
CN1C[C@H](COC2=CC(=O)CC2)C[C@@H]2c3cccc4[nH]c(Cl)c(c34)C[C@H]21 [355/1335, 2-Chloro-6-methyl-8-[(2-cyclopentenon)-3-oxymethyl]-ergoline] | – | 200 | 0.2 | 0.3 | – | –
CSc1[nH]c2cccc3c2c1C[C@@H]1[C@@H]3C[C@@H](COC=CC(C)=O)CN1C [355/1357, 2-Thiomethyl-6-methyl-8-[(3-buten-2-one)-4-oxymethyl]-ergoline] | 2.5 | > 300 | – | – | – | –
CCCN1C[C@H](COC=CC(C)=O)C[C@@H]2c3cccc4[nH]cc(c34)C[C@H]21 [355/1363, 6-Propyl-8-[(3-buten-2-one)-4-oxymethyl]-ergoline] | 2.4 | 400 | – | – | – | –
CN(C)CCCN1c2ccccc2CCc2ccccc21 [imipramine, reference compound] | – | – | – | 18.2 | 3.1 | quite higher orientative acute toxicity
